Calls of active or inactive are those of the source. The rule behind the calls is not given here.
These compounds were tested against Alkaline phosphatase, placental type (Homo sapiens) (UniProt P05187) (assay: activation of placental alkaline phosphatase – biochemical, uHTS hits, mouse IAP activator project, dose response (AID 488878)). Conditions: purified human PLAP enzyme activity.
Compound `COc1ccc(S(=O)(=O)Nc2ccc(O)c(Sc3ncn[nH]3)c2)cc1` has an EC50 of 68.6 µM. `O=C(CSc1nc2ccccc2o1)N/N=C/c1ccc(O)c(O)c1` gave an EC50 of 67.5 µM. In the case of `Oc1ccc(C[C@H]2NCCc3cc(O)c(O)cc32)cc1O`, the EC50 is reported as > 100 µM (inactive). Work on `CCN1/C(=C/C=C/c2oc3ccc(-c4ccccc4)cc3[n+]2CC)Oc2ccc(-c3ccccc3)cc21` yielded an EC50 of 24.5 µM. `Oc1cc(O)c2c(c1)O[C@H](c1ccc(O)c(O)c1)[C@H](O)C2` showed an EC50 of 51.3 µM. `O=C(CN1C(=O)/C(=C/c2ccco2)SC1=S)NC1CCS(=O)(=O)C1` (stereo unspecified) was tested, and the EC50 was > 100 µM (inactive). `Cc1ccc(C)c(NC(=O)CCNS(=O)(=O)c2ccc3[nH]c(=O)oc3c2)c1` was tested, and the EC50 was > 100 µM (inactive). Work on `Oc1cc2c(cc1O)C1c3ccc(O)c(O)c3OCC1(O)C2` (stereo unspecified) yielded an EC50 of 60.4 µM. `COc1cccc(C(C)NC(=O)Nc2cccc(C(F)(F)F)c2)c1` (stereo unspecified) was tested, and the EC50 was > 100 µM (inactive). In the case of `O=C(CN1C(=O)/C(=C/c2ccco2)SC1=S)Nc1ccc(C(=O)O)c(O)c1`, the EC50 is reported as > 100 µM (inactive). With `CCOC(=O)CN1C(=O)/C(=C2\SC(=S)N(NC(=O)c3cccnc3)C2=O)c2ccccc21` the EC50 was 35.1 µM. In the case of `O=C(O)Cc1ccc(O)c(O)c1`, the EC50 is reported as > 100 µM (inactive). In the case of `O=C(Cc1nnc(NC(=O)c2ccccc2)s1)N/N=C\c1ccc(O)c(O)c1`, the EC50 is reported as > 100 µM (inactive). For `Cc1ccc(C(=O)Nc2nnc(CC(=O)N/N=C/c3ccc(O)c(O)c3)s2)cc1`, the EC50 was 49.7 µM. In the case of `CNc1nnc(-c2cc3ccccc3oc2=O)s1`, the EC50 is reported as > 100 µM (inactive). For `O=C(Nc1ccc(Cl)c(C(F)(F)F)c1)NC1CC2CCCC(C1)N2Cc1ccccc1` (stereo unspecified), the EC50 was > 100 µM (inactive). Work on `O=C(CCCN1C(=O)/C(=C\c2ccco2)SC1=S)Nc1ccc(O)cc1C(=O)O` yielded an EC50 of 44.7 µM. With `Oc1ccc(/C=N/Nc2cc(N3CCCC3)nc(N3CCCC3)n2)cc1O` the EC50 was > 100 µM (inactive). `O=c1oc2cc(O)ccc2s1` showed an EC50 of 12 µM. For `O=C(N/N=C/c1ccc([N+](=O)[O-])o1)c1sc2ccccc2c1Cl`, the EC50 was > 100 µM (inactive). For `O=C(NN1C(=O)/C(=C/C=C/c2ccco2)SC1=S)c1ccncc1`, the EC50 was > 100 µM (inactive). For `O=c1[nH]c(/C=C\c2ccc(O)c(O)c2)nc(O)c1[N+](=O)[O-]`, the EC50 was > 100 µM (inactive). For `O=C1/C(=C/C=C/c2ccco2)SC(=S)N1NS(=O)(=O)c1ccccc1`, the EC50 was > 100 µM (inactive). In the case of `Cc1ccc(/C=C2/SC(=O)NC2=S)o1`, the EC50 is reported as 55.9 µM. `CC(C)c1ccc(NC(=O)NC2CCN(CC(=O)Nc3cccc4ccccc34)CC2)cc1` showed an EC50 of 55.9 µM. Work on `O=C(O)CC(CCc1ccccc1)OC1OC(CO)C(O)C(O)C1O` (stereo unspecified) yielded an EC50 of 73 µM. `CCn1c(CSc2nc3ccccc3s2)nnc1SCC(=O)c1ccc(O)c(O)c1` gave an EC50 of 31.7 µM. With `COc1ccc(OC)c(NC(=O)CCNS(=O)(=O)c2ccc3[nH]c(=O)oc3c2)c1` the EC50 was > 100 µM (inactive). `N#Cc1cccc(NC(=O)CCNS(=O)(=O)c2ccc3[nH]c(=O)oc3c2)c1` was tested, and the EC50 was 89.7 µM. With `Cc1ccc(N2C(=O)/C(=C/c3ccc(CN(CCC#N)S(C)(=O)=O)o3)C(=O)NC2=S)cc1` the EC50 was 40.7 µM. Work on `Cc1cc(C)c(S(=O)(=O)Nc2ccc(O)c(Sc3ncn[nH]3)c2)cc1C` yielded an EC50 of 55 µM. For `Cc1ccc(C)c(S(=O)(=O)Nc2ccc(O)c(Sc3ncn[nH]3)c2)c1`, the EC50 was 13.1 µM. `CCOc1cc(/C=C2\CCC/C(=C\c3cc(Cl)c(O)c(OCC)c3)C2=O)cc(Cl)c1O` was tested, and the EC50 was > 100 µM (inactive). `CN(CCO)c1ccc(C=NNc2ccc([N+](=O)[O-])cc2S(=O)(=O)Nc2ccccc2C(=O)O)cc1` gave an EC50 of 26 µM. Work on `CN(C)c1ccc(N=Nc2nc3ccccc3n2C)cc1` yielded an EC50 of 48.3 µM. In the case of `Cc1ccc(NC(=O)CCNS(=O)(=O)c2ccc3[nH]c(=O)oc3c2)cc1F`, the EC50 is reported as > 100 µM (inactive). `O=C(/C=C/c1ccco1)NC(=S)Nc1cccc(C(=O)O)c1` was tested, and the EC50 was 46.8 µM. For `CN(CC(=O)Nc1cccc(Cl)c1)S(=O)(=O)c1ccc2[nH]c(=O)oc2c1`, the EC50 was > 100 µM (inactive). Compound `O=S(=O)(c1cc(O)ccc1O)c1cccc2c(S(=O)(=O)c3cc(O)ccc3O)cccc12` has an EC50 of 24.3 µM. `O=C(N/N=C/c1cn(Cc2cccc(F)c2)c2ccccc12)c1cc(O)cc(O)c1` was tested, and the EC50 was 53.3 µM. With `O=C(CSc1n[nH]c(-c2ccccc2)n1)c1ccc(O)c(O)c1` the EC50 was 65.3 µM. In the case of `O=C(COC(=O)c1ccc(Br)o1)Nc1ncc([N+](=O)[O-])s1`, the EC50 is reported as 60.5 µM. In the case of `Oc1ccc(-c2cn3c(n2)SCC3)cc1O`, the EC50 is reported as 55.6 µM. Work on `Cc1cc(=O)[nH]c(N/N=C/c2ccc(O)c(O)c2)n1` yielded an EC50 of 65.7 µM. For `O=C(NNC(=S)NC(=O)c1cccs1)c1ccc(O)cc1`, the EC50 was 36.8 µM. With `Cc1ccc(CN2C3CCCC2CC(NC(=S)NCc2ccccc2)C3)cc1` (stereo unspecified) the EC50 was > 100 µM (inactive).

Source: PubChem BioAssay AID488878 (Sanford-Burnham Center for Chemical Genomics, 2010)
